Structures can show the parent of a compound that is named as a salt.

The assay relates to collagen induced platelet aggregation. The experiment in a line: In Vitro Inhibition of Platelet Aggregation (collagen induced, rabbit platelet-rich plasma). In kind it is cell-based. The following applies: Oryctolagus cuniculus, 10 min; for inhibition at 6 µM: 6 × 10^^-6 mol./l.; for inhibition at 600 µM: 6 × 10^^-4 mol./l.; for inhibition at 60 µM: 6 × 10^^-5 mol./l. The protocol: The ability of the compounds of the present invention to inhibit platelet aggregation in vitro is measured according to the method of Born, et al., J. Physiol., 168, 178 (1963) and comprises the following procedure: Anesthetized male rabbits are bled from a carotid artery into plastic centrifuge tubes containing 0.1 volume 3% sodium citrate. Platelet-rich plasma is separated by centrifugation at 100 G for 10 minutes at 20° C. […] After 10 minutes of incubation with the platelet-rich plasma at room temperature, collagen, a protein known to cause platelet aggregation, is added (0.27 ml. collagen/4 ml. plasma) and changes in the optical density are followed with a Spectronic 20 colorimeter attached to a Houston Instrument TY Recorder. Platelet aggregation is indicated by a decrease in optical density. The relative potency of the compounds of the present invention are thus rated on their ability to inhibit (percent) collagen induced platelet aggregation.

As usually defined, the inhibition is the percentage by which the read-out fell short of the control. Read a low inhibition as a response near the control. Take `CCN(CC)c1ncnc(-c2ccccc2)c1C(C)C` [Ar=C6H5; R1=C2H5; R2=C2H5; R3=i-C3H7]: the inhibition at 6 µM was found to be 63%.

As to `CN(C)c1cc(-c2ccc(Cl)cc2)ncn1` [Ar=4-ClC6H4; R1=CH3; R2=CH3; R3=H, 4-Dimethylamino-6-(p-chlorophenyl)pyrimidine hydrochloride], at 600 µM the inhibition was 99%, at 60 µM the inhibition was 58% and the inhibition at 6 µM amounted to 7%.

For the molecule `CCCCN(CCCC)c1cc(-c2cccc(NC(C)=O)c2)ncn1`, at 600 µM the inhibition was 15%.

Take `Clc1ccc(-c2cc(N3CCCC3)ncn2)cc1` [Ar=4-ClC6H4; R1,R2=--(CH2)4--; R3=H, 4-(1-Pyrrolidinyl)-6-(p-chlorophenyl)pyrimidine hydrochloride]: the inhibition at 600 µM worked out at 99% and testing at 60 µM gave an inhibition of 21%.

`COc1ccc(-c2cc(N(C)C)ncn2)cc1` [Ar=4-CH3OC6H4; R1=CH3; R2=CH3; R3=H] came in with an inhibition at 600 µM of 89%, an inhibition at 60 µM of 88% and an inhibition at 6 µM of 48%.

`CNc1cc(-c2ccc(OC)cc2)ncn1` [Ar=4-CH3OC6H4; R1=H; R2=CH3; R3=H] showed an inhibition at 600 µM of 76% and an inhibition at 60 µM of 13%.

In the case of `COc1ccc(-c2cc(N3CCCC3)ncn2)cc1` [Ar=4-CH3OC6H4; R1,R2=--(CH2)4--; R3=H], the inhibition at 600 µM was 92%, at 60 µM the inhibition was 92% and 6 µM produced 39% inhibition.

The molecule `C=CCN(CC=C)c1cc(-c2ccc(OC)cc2)ncn1` had an inhibition at 600 µM of 90% and an inhibition at 6 µM of 55%.

Molecule `CCCN(CCC)c1cc(-c2ccccc2)ncn1` [Ar=C6H5; R1=n-C3H7; R2=n-C3H7; R3=H] registered an inhibition at 600 µM of 83%, an inhibition at 60 µM of 49% and an inhibition at 6 µM of 41%.

`CCN(CC(F)(F)F)c1cc(-c2ccccc2)ncn1` [Ar=C6H5; R1=CF3CH2; R2=C2H5; R3=H, 4-[Ethyl(2,2,2-trifluoroethyl)amino]-6-phenylpyrimidine hydrochloride] had an inhibition at 600 µM of 65%, an inhibition at 60 µM of 39% and an inhibition at 6 µM of 34%.

For `CCc1c(-c2ccccc2)ncnc1N(C)C` [Ar=C6H5; R1=CH3; R2=CH3; R3=C2H5], the inhibition at 6 µM was 50%.

As to `CCCN(CCC)c1ncnc(-c2ccccc2)c1CC` [Ar=C6H5; R1=n-C3H7; R2=n-C3H7; R3=C2H5], the inhibition at 6 µM was determined as 5%.

The molecule `COc1ccc(-c2cc(N3CCN(C)CC3)ncn2)cc1` came in with an inhibition at 600 µM of 85%, an inhibition at 60 µM of 55% and an inhibition at 6 µM of 14%.

In the case of `Nc1cc(-c2cccs2)ncn1` [Ar=2-thienyl; R1=H; R2=H; R3=H], at 600 µM the inhibition was 91% and 60 µM produced 9% inhibition.

The molecule `CCc1c(-c2ccco2)ncnc1N(CC)CC` [Ar=2-furyl; R1=C2H5; R2=C2H5; R3=C2H5] came in with an inhibition at 60 µM of 30%.

In turn, `CN(CCO)c1cc(-c2ccccc2)ncn1` [Ar=C6H5; R1=HO(CH2)2; R2=CH3; R3=H, 4-[Methyl(2-hydroxyethyl)amino]-6-phenylpyrimidine hydrochloride] showed an inhibition at 600 µM of 99%, an inhibition at 60 µM of 99% and an inhibition at 6 µM of 28%.

`CC(C)Nc1cc(-c2ccccc2)ncn1` [Ar=C6H5; R1=i-C3H7; R2=H; R3=H] yielded an inhibition at 60 µM of 88% and an inhibition at 6 µM of 29%.

Consider `CCNc1cc(-c2cccs2)ncn1` [Ar=2-thienyl; R1=C2H5; R2=H; R3=H], for which testing at 600 µM gave an inhibition of 99%, at 60 µM the inhibition was 75% and 6 µM produced 35% inhibition.

The molecule `CCCc1c(-c2ccccc2)ncnc1N(C)C` [Ar=C6H5; R1=CH3; R2=CH3; R3=n-C3H7] had an inhibition at 6 µM of 40%.

Molecule `c1ccc(-c2cc(N3CCCC3)ncn2)cc1` [Ar=C6H5; R1,R2=--(CH2)4--; R3=H, 4-(1-Pyrrolidinyl)-6-phenylpyrimidine hydrochloride] yielded an inhibition at 600 µM of 98%, an inhibition at 60 µM of 70% and an inhibition at 6 µM of 6%.

In turn, `CNc1cc(-c2ccccc2)ncn1` [Ar=C6H5; R1=CH3; R2=H; R3=H] yielded an inhibition at 600 µM of 99% and an inhibition at 60 µM of 66%.

`CCCc1c(-c2ccccc2)ncnc1N(CC)CC` [Ar=C6H5; R1=C2H5; R2=C2H5; R3=n-C3H7]: the inhibition at 6 µM came to 55%.

For `CCN(CC)c1cc(-c2ccc(Cl)cc2)ncn1` [Ar=4-ClC6H4; R1=C2H5; R2=C2H5; R3=H, 4-Diethylamino-6-(p-chlorophenyl)pyrimidine hydrochloride], the inhibition at 60 µM turned out to be 73% and the inhibition at 6 µM was 32%.

`FC(F)(F)CNc1cc(-c2ccc(Cl)cc2)ncn1` [Ar=4-ClC6H4; R1=CF3CH2; R2=H; R3=H, 4-(2,2,2-Trifluoroethylamino)-6-(p-chlorophenyl)pyrimidine hydrochloride] gave an inhibition at 600 µM of 86% and an inhibition at 60 µM of 18%.

`CCN(CC)c1cc(-c2cccc(N(C)C)c2)ncn1` [Ar=3-(CH3)2NC6H4; R1=C2H5; R2=C2H5; R3=H, 4-Diethylamino-6-(m-dimethylaminophenyl)pyrimidine hydrochloride] had an inhibition at 600 µM of 89%, an inhibition at 60 µM of 95% and an inhibition at 6 µM of 85%.

`CCCCN(CCCC)c1cc(-c2ccccc2)ncn1` [Ar=C6H5; R1=n-C4H9; R2=n-C4H9; R3=H] had an inhibition at 60 µM of 56% and an inhibition at 6 µM of 35%.

For `OCCN(CCO)c1cc(-c2ccccc2)ncn1` [Ar=C6H5; R1=HO(CH2)2; R2=HO(CH2)2; R3=H, 4-[Bis(2-hydroxyethyl)amino]-6-phenylpyrimidine hydrochloride], testing at 600 µM gave an inhibition of 84% and 60 µM produced 27% inhibition.

`CN(C)c1cc(-c2ccccc2)ncn1` [Ar=C6H5; R1=CH3; R2=CH3; R3=H] had an inhibition at 600 µM of 99% and an inhibition at 60 µM of 55%.
